Measurements reported in article PMC9866366 (Pharmaceutics, 2023).
Square brackets hold non-standard residues; d marks the D form. Peptide text beside a SMILES is read from it. * marks the point of attachment. Alaψ(CH2NMeCH2CH2OH) = C[C@@H](CN(C)CCO)N*; Cha = N[C@@H](CC1CCCCC1)C(=O)O; Lauroyl = CCCCCCCCCCCC(=O)*; Decanoyl = CCCCCCCCCC(=O)*; Octanoyl = CCCCCCCC(=O)*; Hexanoyl = CCCCCC(=O)*; Aib = CC(C)(N)C(=O)O; Propionyl = CCC(=O)*; Butyryl = CCCC(=O)*

Assays:
BxPC-3 cells [1] = assay: PrestoBlue cell viability assay, comparative cytotoxicity assay under 'low glucose'; type: cell-based, human; conditions: 24 h exposure; for IC50: 'low glucose' RPMI 1640 (no glucose added), 50.8 pM to 1 µM, three independent experiments each in technical duplicate; for AUC, PrestoBlue, BxPC-3 / Emax @ 1 µM, PrestoBlue, BxPC-3: 'low glucose', three independent experiments in duplicate; for AUC, PrestoBlue, BxPC-3: area under viability-concentration curve, baseline y = 0; for Emax @ 1 µM, PrestoBlue, BxPC-3: response (percent viability) at highest concentration 1 µM
Excerpt: (§1) Endpoint fluorescence was quantified as described above.

PANC-1 cells [2] = assay: as above; type: cell-based, human; conditions: 24 h exposure; for IC50: 'low glucose' DMEM (no glucose added), 457 pM to 9 µM, three independent experiments each in technical duplicate; for AUC, PrestoBlue, PANC-1 / Emax @ 9 µM, PrestoBlue, PANC-1: 'low glucose', three independent experiments in duplicate; for AUC, PrestoBlue, PANC-1: area under viability-concentration curve, baseline y = 0; for Emax @ 9 µM, PrestoBlue, PANC-1: response (percent viability) at highest concentration 9 µM
Excerpt: as §1

BxPC-3 cells [3] = assay: CyQUANT Direct cell proliferation assay, comparative cytotoxicity assay under 'low glucose'; type: cell-based, human; conditions: 24 h exposure; for IC50: 'low glucose' RPMI 1640 (no glucose added), 50.8 pM to 1 µM, three independent experiments each in technical duplicate; for AUC, CyQUANT Direct, BxPC-3 / Emax @ 1 µM, CyQUANT Direct, BxPC-3: 'low glucose', three independent experiments in duplicate; for AUC, CyQUANT Direct, BxPC-3: area under viability-concentration curve, baseline y = 0; for Emax @ 1 µM, CyQUANT Direct, BxPC-3: response (percent viability) at highest concentration 1 µM
Excerpt: as §1

PANC-1 cells [4] = assay: as above; type: cell-based, human; conditions: 24 h exposure; for IC50: 'low glucose' DMEM (no glucose added), 457 pM to 9 µM, three independent experiments each in technical duplicate; for AUC, CyQUANT Direct, PANC-1 / Emax @ 9 µM, CyQUANT Direct, PANC-1: 'low glucose', three independent experiments in duplicate; for AUC, CyQUANT Direct, PANC-1: area under viability-concentration curve, baseline y = 0; for Emax @ 9 µM, CyQUANT Direct, PANC-1: response (percent viability) at highest concentration 9 µM
Excerpt: as §1

BxPC-3 cells [5] = assay: Initial cytotoxicity assay (PrestoBlue and CyQUANT Direct Confirmation Assay), 25 mM glucose; type: cell-based, human; conditions: 3-day (72 h) incubation, RPMI-1640 with 25 mM glucose, up to highest concentration tested of 1 µM, both viability assays
Procedure: The CyQUANT™ Direct Cell Proliferation Assay was subsequently performed by mixing the CyQUANT™ Direct nucleic acid stain, CyQUANT™ Direct background suppressor I, and PBS (pH 7.4) as per the vendor instructions, then adding 100 µL of this mixture into each well. The plate was returned into the incubator for a further 1 h, and the endpoint fluorescence bottom-read at the Ex/Em wavelength of 485/538 nm on the SpectraMax iD3 plate reader. Blank wells (medium only) and two negative controls—(1) cells + medium, (2) cells + medium + 0.3% v/v DMSO (equivalent to 1 µM peptide)—were set up in the plate for each experiment.

PANC-1 cells [6] = conditions: 24 h exposure, medium with or without 5 mM glucose, up to 9 µM
Procedure: Cells were seeded at a density of 25,000 cells/well (BxPC-3) and 30,000 cells/well (PANC-1) in Nunc MicroWell 96-Well Black Optical-Bottom Plates with Polymer Base (total volume: 100 µL). Cells were first incubated overnight at 37 °C, 5% CO2 to permit adherence, after which the medium in each well was aspirated, briefly washed once with 100 µL/well of PBS (pH 7.4) and replaced with 100 µL of either RPMI 1640 (BxPC-3, #11879020) or DMEM (PANC-1, #11966025) supplemented with or without 5 mM glucose to create the ‘normal glucose’ and ‘low glucose’ media, respectively. This 5 mM glucose concentration was selected to reflect the physiological concentration of glucose in plasma. Each well was then exposed to the peptides in duplicate at a concentration range of 50.8 pM to 1 µM (BxPC-3) or 457 pM to 9 µM (PANC-1) for 24 h (threefold serial dilution in the corresponding ‘normal glucose’ or ‘low glucose’ media, ten steps). Endpoint fluorescence was quantified as described above.
Blank correction (wells containing medium only) was first performed on the raw fluorescence–concentration data from the plate reader. Cell viability was then calculated as a percentage by normalizing to the fluorescence of the wells containing the lowest drug concentration (50.8 pM for BxPC-3, 457 pM for PANC-1). The resulting data from three independent experiments (each in technical duplicate) was then plotted on GraphPad Prism 9 and analyzed using the built-in ‘[Inhibitor] vs. response—Variable slope (four parameters)’ equation.

Molecule	IC50 (BxPC-3 cells [1]) [nM]	AUC, PrestoBlue, BxPC-3 (BxPC-3 cells [1])	Emax @ 1 µM, PrestoBlue, BxPC-3 (BxPC-3 cells [1]) [%]	IC50 (PANC-1 cells [2]) [nM]	AUC, PrestoBlue, PANC-1 (PANC-1 cells [2])	Emax @ 9 µM, PrestoBlue, PANC-1 (PANC-1 cells [2]) [%]	IC50 (BxPC-3 cells [3]) [nM]	AUC, CyQUANT Direct, BxPC-3 (BxPC-3 cells [3])	Emax @ 1 µM, CyQUANT Direct, BxPC-3 (BxPC-3 cells [3]) [%]	IC50 (PANC-1 cells [4]) [nM]	AUC, CyQUANT Direct, PANC-1 (PANC-1 cells [4])	Emax @ 9 µM, CyQUANT Direct, PANC-1 (PANC-1 cells [4]) [%]	Inhibition of proliferation of BxPC-3 cells (in words) (BxPC-3 cells [5])	Cytotoxicity against PANC-1 under 'low glucose' vs 'normal glucose' (in words) (PANC-1 cells [6])
trichoderin A [(3)]	400	5.4 ×10^−5	3.6	300	21.7 ×10^−5	4.7	400	4.9 ×10^−5	19.6	1500	41.0 ×10^−5	28.2	only partially inhibited the proliferation	–
CC[C@H](C)[C@H](NC(=O)C(C)(C)NC(=O)C(C)(C)NC(=O)[C@H](CC1CCCCC1)NC(=O)[C@@H]1CCCN1C(C)=O)C(=O)N[C@H](C(=O)NC(C)(C)C(=O)NC(C)(C)C(=O)N[C@@H](C)CN(C)CCO)C(C)C [(13)] (Ac-P[Cha][Aib][Aib]IV[Aib][Aib]-{Alaψ(CH2NMeCH2CH2OH)})	> 1000	9.5 ×10^−5	94.0	6000	58.9 ×10^−5	34.6	> 1000	11 ×10^−5	111.3	8500	67.8 ×10^−5	48.1	–	sufficient to induce cytotoxic effects
CCCCCCCCCCCC(=O)N1CCC[C@H]1C(=O)N[C@@H](CC1CCCCC1)C(=O)NC(C)(C)C(=O)NC(C)(C)C(=O)N[C@H](C(=O)N[C@H](C(=O)NC(C)(C)C(=O)NC(C)(C)C(=O)N[C@@H](C)CN(C)CCO)C(C)C)[C@@H](C)CC [(19)] (Lauroyl-P[Cha][Aib][Aib]IV[Aib][Aib]-{Alaψ(CH2NMeCH2CH2OH)})	100	1.6 ×10^−5	4.6	200	21.4 ×10^−5	4.7	100	2.6 ×10^−5	18.3	800	38.9 ×10^−5	26.4	–	–
CCCCCCCC(=O)N1CCC[C@H]1C(=O)N[C@@H](CC1CCCCC1)C(=O)NC(C)(C)C(=O)NC(C)(C)C(=O)N[C@H](C(=O)N[C@H](C(=O)NC(C)(C)C(=O)NC(C)(C)C(=O)N[C@@H](C)CN(C)CCO)C(C)C)[C@@H](C)CC [(17)] (Octanoyl-P[Cha][Aib][Aib]IV[Aib][Aib]-{Alaψ(CH2NMeCH2CH2OH)})	400	5.1 ×10^−5	20.0	600	25.5 ×10^−5	8.1	500	5.6 ×10^−5	33.5	2000	43.7 ×10^−5	31.6	–	–
CCC(=O)N1CCC[C@H]1C(=O)N[C@@H](CC1CCCCC1)C(=O)NC(C)(C)C(=O)NC(C)(C)C(=O)N[C@H](C(=O)N[C@H](C(=O)NC(C)(C)C(=O)NC(C)(C)C(=O)N[C@@H](C)CN(C)CCO)C(C)C)[C@@H](C)CC [(14)] (Propionyl-P[Cha][Aib][Aib]IV[Aib][Aib]-{Alaψ(CH2NMeCH2CH2OH)})	600	6.8 ×10^−5	25.1	1800	38.4 ×10^−5	31.5	600	6.8 ×10^−5	27.3	7000	51.8 ×10^−5	51.5	–	–
CCCCCCCCCC(=O)N1CCC[C@H]1C(=O)N[C@@H](CC1CCCCC1)C(=O)NC(C)(C)C(=O)NC(C)(C)C(=O)N[C@H](C(=O)N[C@H](C(=O)NC(C)(C)C(=O)NC(C)(C)C(=O)N[C@@H](C)CN(C)CCO)C(C)C)[C@@H](C)CC [(18)] (Decanoyl-P[Cha][Aib][Aib]IV[Aib][Aib]-{Alaψ(CH2NMeCH2CH2OH)})	200	3.3 ×10^−5	5.5	200	22.2 ×10^−5	3.3	200	3.9 ×10^−5	30.0	2200	44.7 ×10^−5	41.7	–	–
CCCC(=O)N1CCC[C@H]1C(=O)N[C@@H](CC1CCCCC1)C(=O)NC(C)(C)C(=O)NC(C)(C)C(=O)N[C@H](C(=O)N[C@H](C(=O)NC(C)(C)C(=O)NC(C)(C)C(=O)N[C@@H](C)CN(C)CCO)C(C)C)[C@@H](C)CC [(15)] (Butyryl-P[Cha][Aib][Aib]IV[Aib][Aib]-{Alaψ(CH2NMeCH2CH2OH)})	500	5.8 ×10^−5	16.3	900	33.6 ×10^−5	31.0	500	5.8 ×10^−5	33.8	4800	50.3 ×10^−5	53.7	–	–
CCCCCC(=O)N1CCC[C@H]1C(=O)N[C@@H](CC1CCCCC1)C(=O)NC(C)(C)C(=O)NC(C)(C)C(=O)N[C@H](C(=O)N[C@H](C(=O)NC(C)(C)C(=O)NC(C)(C)C(=O)N[C@@H](C)CN(C)CCO)C(C)C)[C@@H](C)CC [(16)] (Hexanoyl-P[Cha][Aib][Aib]IV[Aib][Aib]-{Alaψ(CH2NMeCH2CH2OH)})	400	5.0 ×10^−5	7.1	500	24.3 ×10^−5	7.7	400	5.2 ×10^−5	21.0	2000	42.1 ×10^−5	41.0	–	–
